Test results taken from PubChem BioAssay AID1963430 (Molecular Pharmacology Branch, DTP, NCI, 2024).
Values joined by “and” are separate entries in the source; they are usually repeats but may differ in a detail not shown here. Identical values can stand only once.

System: 521955-158-R2-J5-PDC complex spheroid growth, % test/control
Assay: Anticancer human tumor 521955-158-R2-J5-PDC patient-derived pancreatic carcinoma cell line growth inhibition [Asc]
Conditions: for viability, T/C: stronger effect = lower value
How it was run: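 Tumor cells were grown as multicellular spheroids with stromal HUVEC and mesenchymal stem cells and treated singly or in combination. Concentrations fell in half-log steps from the clinical Cmax, or from 10 microM where none was known.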

[1] = curve of first compound, second compound 0.01 µM
[2] = curve of first compound, second compound 0.0316 µM
[3] = curve of first compound, second compound 0.1 µM
[4] = curve of first compound, second compound 0.316 µM
[5] = curve of first compound, second compound 1 µM
[6] = second compound 0.01 µM, first compound 0.00316 µM
[7] = second compound 0.01 µM, first compound 0.01 µM
[8] = second compound 0.01 µM, first compound 0.0316 µM
[9] = second compound 0.01 µM, first compound 0.1 µM
[10] = second compound 0.01 µM, first compound 0.316 µM
[11] = second compound 0.01 µM, first compound 1 µM
[12] = second compound 0.0316 µM, first compound 0.00316 µM
[13] = second compound 0.0316 µM, first compound 0.01 µM
[14] = second compound 0.0316 µM, first compound 0.0316 µM
[15] = second compound 0.0316 µM, first compound 0.1 µM
[16] = second compound 0.0316 µM, first compound 0.316 µM
[17] = second compound 0.0316 µM, first compound 1 µM
[18] = second compound 0.1 µM, first compound 0.00316 µM
[19] = second compound 0.1 µM, first compound 0.01 µM
[20] = second compound 0.1 µM, first compound 0.0316 µM
[21] = second compound 0.1 µM, first compound 0.1 µM
[22] = second compound 0.1 µM, first compound 0.316 µM
[23] = second compound 0.1 µM, first compound 1 µM
[24] = second compound 0.316 µM, first compound 0.00316 µM
[25] = second compound 0.316 µM, first compound 0.01 µM
[26] = second compound 0.316 µM, first compound 0.0316 µM
[27] = second compound 0.316 µM, first compound 0.1 µM
[28] = second compound 0.316 µM, first compound 0.316 µM
[29] = second compound 0.316 µM, first compound 1 µM
[30] = second compound 1 µM, first compound 0.00316 µM
[31] = second compound 1 µM, first compound 0.01 µM
[32] = second compound 1 µM, first compound 0.0316 µM
[33] = second compound 1 µM, first compound 0.1 µM
[34] = second compound 1 µM, first compound 0.316 µM
[35] = second compound 1 µM, first compound 1 µM
[36] = second compound 0.1 µM, first compound 3.16 µM
[37] = second compound 0.1 µM, first compound 10 µM
[38] = second compound 0.316 µM, first compound 3.16 µM
[39] = second compound 0.316 µM, first compound 10 µM
[40] = second compound 1 µM, first compound 3.16 µM
[41] = second compound 1 µM, first compound 10 µM
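Further: spheroids exposed to agents for 7 days before readout.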
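Wherever viability, T/C is given: 100% = DMSO vehicle control viability.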

O=C(c1ccc(F)c(F)c1Nc1ccc(I)cc1F)N1CC(O)([C@@H]2CCCCN2)C1 + CNC(C)C(=O)NC1CN(S(=O)(=O)c2cccc(S(=O)(=O)N3CCC4CCC(C(=O)NC(c5ccccc5)c5ccccc5)N4C(=O)C(NC(=O)C(C)NC)C3)c2)CCC2CCC(C(=O)NC(c3ccccc3)c3ccccc3)N2C1=O
IC50 [1]: 15.7 nM
IC50 [2]: 18.4 nM
IC50 [3]: 14.5 nM
IC50 [4]: 26.6 nM
IC50 [5]: 15.8 nM
viability, T/C [6]: 61.2%
viability, T/C [7]: 57.2%
viability, T/C [8]: 38.5%
viability, T/C [9]: 35.7%
viability, T/C [10]: 17.7%
viability, T/C [11]: 20.2%
viability, T/C [12]: 76.8%
viability, T/C [13]: 56.4%
viability, T/C [14]: 46.5%
viability, T/C [15]: 26.9%
viability, T/C [16]: 25.5%
viability, T/C [17]: 18.8%
viability, T/C [18]: 66.4%
viability, T/C [19]: 44.7%
viability, T/C [20]: 53.5%
viability, T/C [21]: 29.4%
viability, T/C [22]: 19.7%
viability, T/C [23]: 20.8%
viability, T/C [24]: 61.6%
viability, T/C [25]: 60.3%
viability, T/C [26]: 48%
viability, T/C [27]: 28%
viability, T/C [28]: 18.9%
viability, T/C [29]: 18.3%
viability, T/C [30]: 67.1%
viability, T/C [31]: 53.4%
viability, T/C [32]: 43.5%
viability, T/C [33]: 28.2%
viability, T/C [34]: 17.4%
viability, T/C [35]: 17.3%

COc1c(OCCCN2CCOCC2)ccc2c3n(c(=NC(=O)c4cnc(N)nc4)nc12)CCN3 + CNC(C)C(=O)NC1CN(S(=O)(=O)c2cccc(S(=O)(=O)N3CCC4CCC(C(=O)NC(c5ccccc5)c5ccccc5)N4C(=O)C(NC(=O)C(C)NC)C3)c2)CCC2CCC(C(=O)NC(c3ccccc3)c3ccccc3)N2C1=O
IC50 [1]: 8.04 nM
IC50 [2]: 21 nM
IC50 [3]: 9.32 nM
IC50 [4]: 14.9 nM
IC50 [5]: 21.9 nM
viability, T/C [6]: 63.6%
viability, T/C [7]: 42.8%
viability, T/C [8]: 38.4%
viability, T/C [9]: 25.5%
viability, T/C [10]: 17.9%
viability, T/C [11]: 11.8%
viability, T/C [12]: 73.1%
viability, T/C [13]: 71.1%
viability, T/C [14]: 35%
viability, T/C [15]: 30%
viability, T/C [16]: 18%
viability, T/C [17]: 11.5%
viability, T/C [18]: 71.3%
viability, T/C [19]: 43.6%
viability, T/C [20]: 36.1%
viability, T/C [21]: 27.9%
viability, T/C [22]: 17.1%
viability, T/C [23]: 11.6%
viability, T/C [24]: 91%
viability, T/C [25]: 52.8%
viability, T/C [26]: 35.6%
viability, T/C [27]: 34.8%
viability, T/C [28]: 16.5%
viability, T/C [29]: 13.1%
viability, T/C [30]: 83.3%
viability, T/C [31]: 64.5%
viability, T/C [32]: 42.5%
viability, T/C [33]: 28.6%
viability, T/C [34]: 17.6%
viability, T/C [35]: 12.9%

CCN1C(C(=O)NC23CCC(C(=O)O)(CC2)CC3)C(c2cccc(Cl)c2F)C2(C(=O)Nc3cc(Cl)ccc32)C12CCCCC2 (stereo not given)
viability, T/C (compound 0.00949 µM): 94.9% and 87.6%
IC50 (compound alone, run of 09/27/2022): > 3000 nM
IC50 (curve of compound): > 3000 nM

NC1CCC(NC2CC2c2ccccc2)CC1 (stereo not given)
viability, T/C (compound 0.000316 µM): 63.1% and 63.5% and 88.5%
viability, T/C (compound 0.001 µM): 57% and 64.8% and 83.1%
viability, T/C (compound 0.00316 µM): 52.8% and 60% and 75.8%
viability, T/C (compound 0.01 µM): 68.5% and 49.6% and 95%
viability, T/C (compound 0.0316 µM): 58.5% and 56.5% and 90.8%
viability, T/C (compound 0.1 µM): 60% and 61.9% and 74%
IC50 (curve of compound): > 100 nM

C=CC(=O)N1CCN(c2nc(=O)n(-c3c(C)ccnc3C(C)C)c3nc(-c4c(O)cccc4F)c(F)cc23)C(C)C1 (stereo not given) + CNC(C)C(=O)NC1CN(S(=O)(=O)c2cccc(S(=O)(=O)N3CCC4CCC(C(=O)NC(c5ccccc5)c5ccccc5)N4C(=O)C(NC(=O)C(C)NC)C3)c2)CCC2CCC(C(=O)NC(c3ccccc3)c3ccccc3)N2C1=O
IC50 [1]: > 10000 nM
IC50 [2]: > 10000 nM
IC50 [3]: > 10000 nM
IC50 [4]: > 10000 nM
IC50 [5]: > 10000 nM
viability, T/C [8]: 91.1%
viability, T/C [9]: 105%
viability, T/C [10]: 111%
viability, T/C [11]: 118%
viability, T/C (second compound 0.01 µM, first compound 3.16 µM): 119%
viability, T/C (second compound 0.01 µM, first compound 10 µM): 88.2%
viability, T/C [14]: 108%
viability, T/C [15]: 93.1%
viability, T/C [16]: 103%
viability, T/C [17]: 94.8%
viability, T/C (second compound 0.0316 µM, first compound 3.16 µM): 115%
viability, T/C (second compound 0.0316 µM, first compound 10 µM): 96.7%
viability, T/C [20]: 91.8%
viability, T/C [21]: 111%
viability, T/C [22]: 105%
viability, T/C [23]: 119%
viability, T/C [36]: 97.4%
viability, T/C [37]: 89.1%
viability, T/C [26]: 104%
viability, T/C [27]: 100%
viability, T/C [28]: 97.3%
viability, T/C [29]: 98.2%
viability, T/C [38]: 106%
viability, T/C [39]: 95.2%
viability, T/C [32]: 115%
viability, T/C [33]: 98.3%
viability, T/C [34]: 102%
viability, T/C [35]: 109%
viability, T/C [40]: 113%
viability, T/C [41]: 88.3%

C=CC(=O)N1CCN(c2nc(=O)n(-c3c(C)ccnc3C(C)C)c3nc(-c4c(O)cccc4F)c(F)cc23)C(C)C1 (stereo not given) + Cc1c(S(C)(=O)=O)c(-c2cc(F)cc(N3CCN(c4ccc(NS(=O)(=O)c5ccc(NC(CCN6CCC(C(=O)OCCCP(=O)(O)O)CC6)CSc6ccccc6)c(S(=O)(=O)C(F)(F)F)c5)cc4)CC3)c2)c(-c2ccc(Cl)cc2)n1C(C)C
IC50 [3]: > 10000 nM
IC50 [4]: > 10000 nM
IC50 [5]: > 10000 nM
IC50 (curve of first compound, second compound 3.16 µM): > 10000 nM
IC50 (curve of first compound, second compound 10 µM): > 10000 nM
viability, T/C [20]: 77.7%
viability, T/C [21]: 87.5%
viability, T/C [22]: 64.9%
viability, T/C [23]: 94.5%
viability, T/C [36]: 107%
viability, T/C [37]: 77.5%
viability, T/C [26]: 80.6%
viability, T/C [27]: 72.2%
viability, T/C [28]: 84.8%
viability, T/C [29]: 112%
viability, T/C [38]: 111%
viability, T/C [39]: 83.7%
viability, T/C [32]: 69.5%
viability, T/C [33]: 72.3%
viability, T/C [34]: 85.8%
viability, T/C [35]: 95.7%
viability, T/C [40]: 71.8%
viability, T/C [41]: 81.7%
viability, T/C (second compound 3.16 µM, first compound 0.0316 µM): 73.7%
viability, T/C (second compound 3.16 µM, first compound 0.1 µM): 97.8%
viability, T/C (second compound 3.16 µM, first compound 0.316 µM): 83.5%
viability, T/C (second compound 3.16 µM, first compound 1 µM): 86.5%
viability, T/C (second compound 3.16 µM, first compound 3.16 µM): 103%
viability, T/C (second compound 3.16 µM, first compound 10 µM): 80.3%
viability, T/C (second compound 10 µM, first compound 0.0316 µM): 151%
viability, T/C (second compound 10 µM, first compound 0.1 µM): 176%
viability, T/C (second compound 10 µM, first compound 0.316 µM): 167%
viability, T/C (second compound 10 µM, first compound 1 µM): 112%
viability, T/C (second compound 10 µM, first compound 3.16 µM): 123%
viability, T/C (second compound 10 µM, first compound 10 µM): 98.4%
